Assay results: patent publication US20110039787A1, “COMPOSITIONS, KITS AND METHODS FOR TREATING BENIGN PROSTATE HYPERPLASIA” (priority 2009, published 2011)
Square brackets hold non-standard residues; d marks the D form. Peptide text beside a SMILES is read from it. * marks the point of attachment. dPhe(4-NHCONH2) = NC(=O)Nc1ccc(C[C@@H](N)C(=O)O)cc1; Dihydroorotyl(S) = O=C1C[C@@H](C(=O)*)NC(=O)N1; dPhe(4-Cl) = N[C@H](Cc1ccc(Cl)cc1)C(=O)O; Phe(4-NH2) = Nc1ccc(C[C@H](N)C(=O)O)cc1; d2Nal = N[C@H](Cc1ccc2ccccc2c1)C(=O)O; Lys(iPr) = CC(C)NCCCC[C@H](N)C(=O)O; d3Pal = N[C@H](Cc1cccnc1)C(=O)O

Test system: men with BPH
Test: IPSS questionnaire (sum of scores), clinical trial in BPH patients
Type: in vivo
Protocol: For each patient, the following parameters were measured or assessed (using the methods discussed below), at time points of screening day 0 (e.g., −7 days, “baseline”), day 14, day 28, and day 42:
After the initial 6-week treatment period of the exploratory study had been completed, a 12-month follow-up period looking at long-term efficacy commenced. Interim data of the main efficacy variables (IPSS, IPSS Global QoL, prostate volume, urinary flow, and post-void residual volume—measured as set out below) after 6 months' follow-up are also presented herein at Tables 1, 2, 3, and FIG. 1b. FIG. 1b also includes IPSS data at 9 and 12 months.
The IPSS was developed in 1991 by the American Urological Association to assess the severity of urinary symptoms related to BPH (Barry, M. J., et al., The American Urological Association symptom index for benign prostatic hyperplasia. The Measurement Committee of the American Urological Association. J Urol, 1992. 148(5): p. 1549-57; discussion 1564). The IPSS has been widely used in clinical studies, has undergone extensive validation, and its psychometric properties are well documented in both the original version (containing a 1-month recall) as well as the ‘acute’ version used in this study (containing a one-week recall). The WHO recommended the use of this instrument for the evaluation of BPH, and it is considered to be the internationally accepted, standard questionnaire for assessing lower urinary tract symptoms.
The patients completed the IPSS questionnaire to evaluate their urinary symptoms. The IPSS is a patient-administered questionnaire containing seven items to evaluate symptoms of urinary obstruction (i.e., incomplete emptying, frequency, hesitancy, urgency, weak stream, straining, nocturia) over the preceding week. Each urinary symptom question is assigned points from 0 to 5 indicating increasing severity of the particular symptom. The total score can therefore range from 0 to 35 (0-7: mildly symptomatic; 8-19: moderately symptomatic; 20-35: severely symptomatic). A reduction in total score over the treatment period is indicative of prostate symptom improvement.

[1] = 16+16 mg, Month 6 follow up, n=6
[2] = 32+32 mg, Month 6 follow up, n=7
[3] = all treatment groups (50 patients), Day 42

CC(=O)N[C@H](Cc1ccc2ccccc2c1)C(=O)N[C@H](Cc1ccc(Cl)cc1)C(=O)N[C@H](Cc1cccnc1)C(=O)N[C@@H](CO)C(=O)N[C@@H](Cc1ccc(NC(=O)[C@@H]2CC(=O)NC(=O)N2)cc1)C(=O)N[C@H](Cc1ccc(NC(N)=O)cc1)C(=O)N[C@@H](CC(C)C)C(=O)N[C@@H](CCCCNC(C)C)C(=O)N1CCC[C@H]1C(=O)N[C@H](C)C(N)=O [Degarelix, D-Alaninamide, N-acetyl-3-(2-naphthalenyl)-D-alanyl-4-chloro-D-phenylalanyl-3-(3-pyridinyl)-D-alanyl-L-seryl-4-[[[(4S)-hexahydro-2,6-dioxo-4-pyrimidinyl]carbonyl]amino]-L-phenylalanyl-4-[(aminocarbonyl)amino]-D-phenylalanyl-L leucyl-N6-(1-methylethyl)-L-lysyl-L-prolyl] (Ac-[d2Nal][dPhe(4-Cl)][d3Pal]S[Phe(4-NH2)](Dihydroorotyl(S))[dPhe(4-NHCONH2)]L[Lys(iPr)]P[dA]-NH2)
Improvements in mean sum of IPSS scores (32 mg and 32+32 mg groups, 9 and 12 months (FIG. 1b)): still indicated | Mean change from baseline in IPSS score, mean (SD) (32 mg s.c. (Day 0), Day 14, N=12): −7.8 (8.7) | Percentage responders (decrease in IPSS of at least 30% as compared to baseline) (32 mg, Day 42): 92% | Mean IPSS score, mean (SD) (32 mg, Day 42, N=12): 9.1 (6.2) | Mean change from baseline in IPSS score, mean (SD) (32 mg, Day 42, N=12): −13.2 (6.6) | Mean change from baseline in IPSS score, mean (SD) (32 mg, Day 42, N=12, listed as degarelix): −13.2 | Mean IPSS score, mean (SD) (32 mg, Month 6 follow up, n=7): 10.4 (6.3) | Mean change from baseline in IPSS score, mean (SD) (32 mg, Month 6 follow up, n=7): −11.6 (8.3) | Percentage responders (decrease in IPSS of at least 30% as compared to baseline) (32 mg, Month 6 follow up, n=7): 86% | Mean change from baseline in IPSS score, mean (SD) (64 mg s.c. (Day 0), Day 14, N=13): −8.0 (4.0) | Percentage responders (decrease in IPSS of at least 30% as compared to baseline) (64 mg, Day 42): 85% | Mean IPSS score, mean (SD) (64 mg, Day 42, N=13): 11.8 (5.9) | Mean change from baseline in IPSS score, mean (SD) (64 mg, Day 42, N=13): −10.0 (5.0) | Mean change from baseline in IPSS score, mean (SD) (64 mg, Day 42, N=13, listed as degarelix): −10.0 | Mean IPSS score, mean (SD) (64 mg, Month 6 follow up, n=4): 16.0 (8.7) | Mean change from baseline in IPSS score, mean (SD) (64 mg, Month 6 follow up, n=4): −4.0 (3.6) | Mean change from baseline in IPSS score, mean (SD) (16+16 mg s.c. (Day 0 + Day 14), Day 14, N=13): −3.2 (5.4) | Percentage responders (decrease in IPSS of at least 30% as compared to baseline) (16+16 mg, Day 42): 54% | Mean IPSS score, mean (SD) (16+16 mg, Day 42, N=13): 11.6 (4.5) | Mean change from baseline in IPSS score, mean (SD) (16+16 mg, Day 42, N=13): −6.1 (4.6) | Mean change from baseline in IPSS score, mean (SD) (16+16 mg, Day 42, N=13, listed as degarelix): −6.1 | Mean IPSS score, mean (SD) [1]: 16.3 (4.7) | Mean change from baseline in IPSS score, mean (SD) [1]: −2.5 (4.3) | Percentage responders (decrease in IPSS of at least 30% as compared to baseline) [1]: 33% | Mean change from baseline in IPSS score, mean (SD) (32+32 mg s.c. (Day 0 + Day 14), Day 14, N=12): −5.5 (5.0) | Percentage responders (decrease in IPSS of at least 30% as compared to baseline) (32+32 mg, Day 42): 83% | Mean IPSS score, mean (SD) (32+32 mg, Day 42, N=12): 8.6 (5.7) | Mean change from baseline in IPSS score, mean (SD) (32+32 mg, Day 42, N=12): −9.6 (4.7) | Mean change from baseline in IPSS score, mean (SD) (32+32 mg, Day 42, N=12, listed as degarelix): −9.6 | Mean IPSS score, mean (SD) [2]: 6.7 (4.5) | Mean change from baseline in IPSS score, mean (SD) [2]: −12.6 (9.6) | Percentage responders (decrease in IPSS of at least 30% as compared to baseline) [2]: 86% | Number of patients categorised as "mild" (IPSS 0-7) [3]: 17 patients | Number of patients categorised as "moderate" (IPSS 8-19) [3]: 31 patients | Number of patients categorised as "severe" (IPSS 20-35) [3]: 2 patients
